Measured values published in patent US11739122B2, “Glycopeptide antibiotic compounds, methods for producing the same, and uses thereof” (Academia Sinica, priority 2019, dated 2023).
≈ marks a conversion by molar mass, not a printed value. Where “and” joins values, the source holds several entries; their conditions need not be identical. Equal values may be shown once. Where a name gives a salt, the structure may show the parent alone. Read-outs that look alike come from different tables or passages of the source.

Key:
A. baumannii ATCC 19606 [1] = assay: MIC, broth microdilution; format: cell-based, Acinetobacter baumannii
Procedure: (§1) Determination of Minimal Inhibitory Concentration (MIC) for Vancomycin, Teicoplanin and Tei-Analogs Versus Selected Strains
(§2) MICs were determined by the broth microdilution method. Specifically, 12 Colonies of the test strain were picked up from 18-24 hour agar cultures and freshly inoculated into broth mediums until reaching the turbidity of a 0.5 McFarland standard. The broth culture was adjusted with broth medium to approximately 1×10^8 CFUmL^−1. […] The plates were incubated in 37° C. for 18-24 hours and monitored for the wells of the positive control, where cells grew, and the wells of the negative control, where wells should not grow. The MIC value was determined for the concentration of a test compound, at which there was no visible growth in the well.

MRSA ATCC 700787 = assay: Thin-section TEM, cell wall morphology; format: cell-based, Staphylococcus aureus
Procedure: Thin-Section Transmission Electron Microscopy (TEM)
An overnight cultured MRSA ATCC 700787, VRE ATCC 700221 or A. baumannii ATCC 19606 was individually sub-cultured into a fresh medium. Bacteria at the exponential phase were treated with a given test compound at a concentration of 4×MIC for 1-4 hour at 37° C. and followed by wash and resuspension in PBS. Bacteria cells for the TEM analysis were prepared as follows: Cells were fixed with 2.5% glutaraldehyde for 30 minutes. After the fixation, cells were washed twice with PBS and fixed with 1% osmium tetraoxide for another 30 minutes. All the buffer was removed with distilled water. The cells were then stained with 1% uranyl acetate and dehydrated with a graded ethanol solution. Cells were embedded in resin. Finally, each sample was cut into thin slices of approximately 90 nm with a glass knife and stained with uranyl acetate. The images of bacterial morphological were recorded.
The cell wall/membrane apparently is the targets, while the extent of damage depends on what compound imposes on the strain. […] Cell wall thickening has been a common phenotype in clinical MRSA isolates, which may well be a phenotypic determinant for VRSA. The systemic cell-wall damage may account for the cell-wall biosynthesis crippled all over the cell surface in cell-wall thickening strains, thus leading cells to lysis as a result of the osmotic pressure of cytoplasm.

E. faecalis ATCC 29302 = assay: MIC, broth microdilution; format: cell-based
Procedure: as §1, §2

MRSA ATCC 43300 = assay: MIC, broth microdilution; format: cell-based, Staphylococcus aureus
Procedure: as §1, §2

MRSA ATCC 700789 VRSA = assay: MIC, broth microdilution; format: cell-based, Staphylococcus aureus
Procedure: as §1, §2

S. aureus ATCC 29213 = assay: MIC, broth microdilution; format: cell-based, Staphylococcus aureus
Procedure: as §1, §2

MRSA ATCC BAA-44 = assay: MIC, broth microdilution; format: cell-based, Staphylococcus aureus
Procedure: as §1, §2

MRSA ATCC 700787 VRSA = assay: MIC, broth microdilution; format: cell-based, Staphylococcus aureus
Procedure: as §1, §2

MRSA ATCC 700698 hVISA = assay: MIC, broth microdilution; format: cell-based, Staphylococcus aureus
Procedure: as §1, §2

MRSA ATCC BAA-38 = assay: MIC, broth microdilution; format: cell-based, Staphylococcus aureus
Procedure: as §1, §2

MRSA ATCC BAA-39 = assay: MIC, broth microdilution; format: cell-based, Staphylococcus aureus
Procedure: as §1, §2

VRE ATCC 700221 (vanA) = assay: MIC, broth microdilution; format: cell-based, enterococci
Procedure: as §1, §2

VRE ATCC 700802 (vanB) = assay: MIC, broth microdilution; format: cell-based, enterococci
Procedure: as §1, §2

VRE ATCC 700425 (vanC) = assay: MIC, broth microdilution; format: cell-based, enterococci
Procedure: as §1, §2

Dbv27 = Dbv27 (Nonomuraea gerenzanensis, UniProt Q7WZ64); assay: ITC binding affinity; conditions: ITC versus Dbv27
Procedure: Isothermal Titration Calormetry (ITC) Analysis
A stock solution (50 mM) was prepared by dissolving r6,GlcNAc pseudoaglycone (9) in 50% DMSO. The 1 mM protein solutions of Orf2*, Orf2*T and Dbv27 were prepared in a 50 mM HEPES buffer solution at pH 8.0. The solution (50 mM HEPES, pH8.0 and 10% DMSO) that contained compound 9 (1 mM) or S-adenosylmethionine (SAM) (1 mM) in a 40 μL injection syringe was titrated into the Orf2*, Orf2*T or Dbv27 (0.1 mM) protein solution, which was placed in the sample cell of a 200 μL volume. Each titration consisted of 16 injections of a 2 μL4 s^−1 duration in an interval of 150 seconds. Data analysis was performed by software.

HEK293T cells = assay: Alamar Blue cell viability assay; format: cell-based, human; conditions: up to 100 μgmL^−1; 2 and 24 h
Procedure: The Alamar Blue (AB) assay, which includes a redox indicator that changes color or emits fluorescence in response to a metabolic activity, was used to assess in vitro mammalian cell cytotoxicity (human embryonic kidney cells (HEK293T)) upon an antibiotic treatment. 2×10^5 cellsmL^−1 were allowed to adhere on 96-well plates overnight at 37° C. in a humidified incubator (5% CO2 atmosphere). Tested compounds were dissolved in 50% DMSO to make 1 mgmL^−1 of a stock solution. Cells were separately aliquoted with 5 μL of a test compound (final concentration: 100 μgmL^−1) and incubated. PBS and 50% DMSO, which was used to dissolve compounds, served as a control. Cell viability was triplicated and assessed at 2 and 24 hour time points for each test compound, on which the measurements followed the manufacturer protocol.

A. baumannii ATCC 19606 [2] = assay: In vivo efficacy, intranasal A. baumannii infection; design: species or system mice; conditions: BAL fluid, 24 hours post-inoculation; 24 and kanamycin 30, amikacin 15 mgkg^−1
Procedure: In Vivo Efficacy of r6,N-Acyl-Glc Tei Analogs
Female C57BL/6 mice (6 weeks of age; about 16-19 g, 3-5 mice per group) were intraperitoneally inoculated with 300 μL of MRSA ATCC 700787 suspension (about 10^7 CFUmL^−1). For intranasal A. baumannii (ATCC 19606) inoculation, mice were anesthetized, and inoculated intranasally with about 10^7-10^8 CFUmL^−1 A. baumannii in 50 μL of PBS. Treatments were started 1 hour after the bacterial challenge. The dose administration to mice was set as follows: teicoplanin (1) or r6,C8-Tei analog (14) 20 mgkg^−1 was intraperitoneally injected to MRSA-infected mice; amikacin (15 mgkg^−1), teicoplanin (1) (30 mgkg^−1), kanamycin (30 mgkg^−1) or r1,Me2-r6,guanidino-C8 analog (24) (30 mgkg^−1) was intraperitoneally injected to AB-infected mice. To assess bacteraemia, the test animals were sacrificed to collect 1 mL of peritoneal fluid (PF) for MRSA counting or the lungs were lavaged to collect 0.6 mL bronchoalveolar lavage (BAL) fluid for A. baumannii counting.
For AB (ATCC 19606), female C57BL/6 mice were first anesthetized by intraperitoneal injection of zoletil and then intranasally inoculated with 50 μL of bacteria in a PBS solution (about 10^7-10^8 CFUmL^−1). The treatment started 1 hour post-infection with a single dose of compound 24 (30 mgkg^−1), compound 1 (30 mgkg^−1), amikacin (15 mgkg^−1), or kanamycin (30 mgkg^−1), where saline/compound 1 and amikacin/kanamycin respectively served as negative and positive controls. To assess the density of bacteraemia, the lungs of mice were lavaged to collect 0.6 mL bronchoalveolar lavage (BAL) fluid from each mouse at 24 hours post-inoculation. For saline/compound 1 treated controls, the bacterial load was counted (about 4 log CFUmL^−1, FIG. 4B), where the bacterial load was reduced by 0.5 or 1 log CFUmL^−1 with the treatment of amikacin/kanamycin or compound 24, respectively.

A. baumannii ATCC 19606 [3] = assay: Thin-section TEM, cell wall morphology; format: cell-based, Acinetobacter baumannii; conditions: AB ATCC 19606; 24 50 μM, colistin 3.2 μM, combination 25 μM each
[4] = Acinetobacter baumannii, ATCC19606
[5] = Acinetobacter baumannii, ATCC19606, read-out: MIC on AB

Sequence of Dbv27 (Q7WZ64 entry or part of it): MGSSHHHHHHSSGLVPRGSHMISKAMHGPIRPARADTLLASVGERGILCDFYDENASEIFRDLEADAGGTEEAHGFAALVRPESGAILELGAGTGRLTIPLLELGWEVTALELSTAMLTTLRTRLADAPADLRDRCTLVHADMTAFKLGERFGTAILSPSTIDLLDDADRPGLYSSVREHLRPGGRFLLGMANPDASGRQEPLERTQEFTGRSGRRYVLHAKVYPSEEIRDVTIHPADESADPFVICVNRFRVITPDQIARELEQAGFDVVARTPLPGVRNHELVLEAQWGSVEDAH

CN[C@H](CC(C)C)C(=O)N[C@H]1C(=O)N[C@@H](CC(N)=O)C(=O)N[C@H]2C(=O)N[C@H]3C(=O)N[C@H](C(=O)N[C@H](C(=O)O)c4cc(O)cc(O)c4-c4cc3ccc4O)[C@H](O)c3ccc(c(Cl)c3)Oc3cc2cc(c3O[C@@H]2O[C@H](CO)[C@@H](O)[C@H](O)[C@H]2O[C@H]2C[C@](C)(N)[C@H](O)[C@H](C)O2)Oc2ccc(cc2Cl)[C@H]1O [Compound 2, vancomycin, reference compound]
MIC (A. baumannii ATCC 19606 [1]; [4]): 200 µM and 297 µg/mL | MIC (A. baumannii ATCC 19606 [1]; [5]): > 190 mg/L | cell wall morphology by TEM (MRSA ATCC 700787): floppy | MIC (E. faecalis ATCC 29302; Enterococcus faecalis, ATCC29302): 2 mg/L (≈ 1.38 µM) | MIC (MRSA ATCC 43300; Staphylococcus aureus): 1 mg/L (≈ 0.69 µM) | MIC (MRSA ATCC 700789 VRSA; Staphylococcus aureus): 16 mg/L (≈ 11 µM) | MIC (S. aureus ATCC 29213; Staphylococcus aureus, ATCC29213): 1 mg/L (≈ 0.69 µM) | MIC (MRSA ATCC BAA-44; Staphylococcus aureus): 2 mg/L (≈ 1.38 µM) | MIC (MRSA ATCC 700787 VRSA; Staphylococcus aureus): 16 mg/L (≈ 11 µM) | MIC (MRSA ATCC 700698 hVISA; Staphylococcus aureus): 4 mg/L (≈ 2.76 µM) | MIC (MRSA ATCC BAA-38; Staphylococcus aureus): 1 mg/L (≈ 0.69 µM) | MIC (MRSA ATCC BAA-39; Staphylococcus aureus): 1 mg/L (≈ 0.69 µM) | MIC (VRE ATCC 700221 (vanA); Enterococcus): > 128 mg/L | MIC (VRE ATCC 700802 (vanB); Enterococcus): 64 mg/L (≈ 44.2 µM) | MIC (VRE ATCC 700425 (vanC); Enterococcus): 16 mg/L (≈ 11 µM)

N[C@H]1[C@H](O[C@@H]2c3ccc(c(Cl)c3)Oc3cc4cc(c3O)Oc3ccc(cc3Cl)C[C@H]3NC(=O)[C@H](N)c5ccc(O)c(c5)Oc5cc(O)cc(c5)[C@H](NC3=O)C(=O)N[C@H]4C(=O)N[C@H]3C(=O)N[C@@H]2C(=O)N[C@H](C(=O)O)c2cc(O)cc(O)c2-c2cc3ccc2O)O[C@H](CO)[C@@H](O)[C@@H]1O [Compound 12, r6,Glm pseudoaglycone]
Kd (Dbv27): 5 µM

N[C@H]1C(=O)N[C@@H]2Cc3ccc(c(Cl)c3)Oc3cc4cc(c3O)Oc3ccc(cc3Cl)[C@@H](O[C@@H]3O[C@H](CO)[C@@H](O)[C@H](O)[C@H]3NC(=O)CCCCc3ccc(F)cc3)[C@@H]3NC(=O)[C@H](NC(=O)[C@@H]4NC(=O)[C@@H](NC2=O)c2cc(O)cc(c2)Oc2cc1ccc2O)c1ccc(O)c(c1)-c1c(O)cc(O)cc1[C@@H](C(=O)O)NC3=O [Compound 18]
cytotoxicity to HEK293T cells (HEK293T cells): did not exhibit any observable toxicity | MIC (E. faecalis ATCC 29302; EF ATCC 29302): 0.25 mg/L (≈ 0.163 µM) | MIC (MRSA ATCC 43300; MRSA ATCC 43300): 0.031 mg/L (≈ 0.0202 µM) | MIC (MRSA ATCC 700789 VRSA; MRSA ATCC 700789 VRSA): 0.5 mg/L (≈ 0.325 µM) | MIC (S. aureus ATCC 29213; SA ATCC 29213): 0.063 mg/L (≈ 0.041 µM) | MIC (MRSA ATCC BAA-44; MRSA ATCC BAA-44): 0.016 mg/L (≈ 0.0104 µM) | MIC (MRSA ATCC 700787 VRSA; MRSA ATCC 700787 VRSA): 0.125 mg/L (≈ 0.0813 µM) | MIC (MRSA ATCC 700698 hVISA; MRSA ATCC 700698 hVISA): 0.016 mg/L (≈ 0.0104 µM) | MIC (MRSA ATCC BAA-38; MRSA ATCC BAA-38): 0.016 mg/L (≈ 0.0104 µM) | MIC (MRSA ATCC BAA-39; MRSA ATCC BAA-39): 0.063 mg/L (≈ 0.041 µM) | MIC (VRE ATCC 700221 (vanA); VRE ATCC 700221 (vanA)): >16 mg/L | MIC (VRE ATCC 700802 (vanB); VRE ATCC 700802 (vanB)): 0.25 mg/L (≈ 0.163 µM) | MIC (VRE ATCC 700425 (vanC); VRE ATCC 700425 (vanC)): 1 mg/L (≈ 0.65 µM)

C[S+](CC[C@H](N)C(=O)[O-])C[C@H]1O[C@@H](n2cnc3c(N)ncnc32)[C@H](O)[C@@H]1O (some centres unmarked) [SAM, S-adenosylmethionine, reference compound]
Kd (Dbv27): 10 µM

NCC[C@H](O)C(=O)N[C@@H]1C[C@H](N)[C@@H](O[C@H]2O[C@H](CN)[C@@H](O)[C@H](O)[C@H]2O)[C@H](O)[C@H]1O[C@H]1O[C@H](CO)[C@@H](O)[C@H](N)[C@H]1O [amikacin]
bacterial load reduced by (A. baumannii ATCC 19606 [2]): 0.5 log CFUmL^−1

NC[C@H]1O[C@H](O[C@H]2[C@H](O)[C@@H](O[C@H]3O[C@H](CO)[C@@H](O)[C@H](N)[C@H]3O)[C@H](N)C[C@@H]2N)[C@H](O)[C@@H](O)[C@@H]1O [kanamycin sulfate, reference compound]
MIC (A. baumannii ATCC 19606 [1]; [4]): 25 µM and 14.6 µg/mL | MIC (A. baumannii ATCC 19606 [1]; [5]): 14.6 mg/L | bacterial load reduced by (A. baumannii ATCC 19606 [2]): 0.5 log CFUmL^−1

colistin sulfate [reference compound]
MIC on AB (A. baumannii ATCC 19606 [1]; A. baumannii ATCC 19606): 1.98 mg/L | MIC (A. baumannii ATCC 19606 [1]; A. baumannii ATCC 19606, Table 3, first figure of cell): 1.56 µM | MIC (A. baumannii ATCC 19606 [1]; A. baumannii ATCC 19606, Table 3, second figure of cell): 1.98 mg/L | cell membrane/cell wall morphology by TEM (A. baumannii ATCC 19606 [3]): intactness of cell membrane/cell wall was severely damaged
